In one data set the test system is fibrinolysis. The note with it: cited from earlier work.
Data set [1] in a line: Monkey PK experiment (plasma concentration by LC-MS/MS). The note with it: male cynomolgus monkey, 1 mg/kg intravenous injection, single dose, fasted. It is filed as in vivo. As for the experimental part: Male Cynomolgus monkey, normal grade, 3 monkeys each group (N=3)
The compound is weighed and dissolved in normal saline to prepare a 0.5 mg/mL clear solution for intravenous administration.
On the day of the experiment, the animals were administered according to the scheme in the table below. At each time point after administration, approximately 1 mL of blood was collected from the forearm vein and placed in heparin sodium anticoagulation tubes. Blood samples were placed on ice after collection, and the plasma was separated by centrifugation within 1 hour (centrifugation conditions: 2200 g, 10 minutes, 2-8° C.). The plasma samples were stored in a refrigerator at −80° C. until analysis.
The compound concentration in cynomolgus monkey plasma was determined by the following method: • Instruments and equipment: LC-MS/MS-19 (TQ5500, AB SCIEX, USA). • Internal standard: warfarin. • Chromatographic column: ACQUITY UPLC BEH C18, model 1.7 um 2.1*50 mm, purchased from Shenzhen Novah Chemical Technology Co., Ltd.; • Flow rate: 0.60 ml/min. • Column temperature: 40° C. • Mobile phase A: 0.1% formic acid in water. • Mobile phase B: 0.1% formic acid in acetonitrile.
Take 30 μL of the plasma sample prepared from item “2” , add 300 μL MeOH containing 100 ng/mL of internal standard to precipitate protein. The mixture was vortexed for 1 minute and centrifuged at 18000 g for 7 minutes. The supernatant was transferred to a 96-well plate. Inject 4 μL of supernatant into LC-MS/MS for analysis.
Pharmacokinetic parameters were calculated by using Phoenix WinNonlin7.0 software according to blood concentration data of different time points.

Turning to `NC[C@H]1CC[C@H](C(=O)O)CC1` [tranexamic acid, trans-4-aminomethyl-cyclohexane-carboxylic acid], in the data set with fibrinolysis, the “anti-fibrinolytic activity relative to EACA” value was “about 10 times”.
In data set [1], `Cl.O=C(O)c1ccc2c(n1)CCNC2` [Example 1, 5,6,7,8-tetrahydro-1,6-naphthyridine-2-carboxylic acid hydrochloride] gave an AUC of 4110 ng·h/mL, a Cmax of 10600 ng/mL and a clearance of 4 mL/min/kg.

The values above are taken from patent US20240124443A1, “PLASMIN INHIBITOR, PREPARATION METHOD THEREFOR, AND APPLICATION THEREOF” (SCINNOHUB PHARMACEUTICAL CO., LTD, priority 2021, published 2024).
